{"source": "patent US20230085307A1", "about": "“PYRIDAZINONE COMPOUND AND HERBICIDE” (NISSAN CHEMICAL CORPORATION, priority 2019, published 2023)", "key": {"barnyard grass [1]": {"system": "barnyard grass", "test": "Test Example 3: herbicidal effect by foliage application, Wagner pot (Table 18, symbol H)", "assay_type": "in vivo, barnyard grass (Echinochloa crus-galli)", "settings": "for herbicidal effect on barnyard grass (H): 320 g/ha", "method_in_brief": "(§1)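 Plants were sown in alluvial soil held under 0.1–0.5 cm standing water and grown 14 days in a greenhouse at 25–30 °C. An emulsifiable formulation, water-diluted to the set dose, was then sprayed onto the foliage, and effects were scored three weeks later using previously defined criteria.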"}, "Chinese sprangletop": {"system": "Chinese sprangletop", "test": "Test Example 3: herbicidal effect by foliage application, Wagner pot (Table 18, symbol D)", "assay_type": "in vivo, chinese sprangletop (Leptochloa chinensis)", "settings": "for herbicidal effect on Chinese sprangletop (D): 320 g/ha", "method_in_brief": "as §1"}, "rice flat sedge": {"system": "rice flat sedge", "test": "Test Example 3: herbicidal effect by foliage application, Wagner pot (Table 18, symbol E)", "assay_type": "in vivo, rice flat sedge (Cyperus iria)", "settings": "for herbicidal effect on rice flat sedge (E): 320 g/ha", "method_in_brief": "as §1"}, "southern crabgrass": {"system": "southern crabgrass", "test": "Test Example 5: herbicidal effect by foliage application, plastic box (Table 20, symbol F)", "assay_type": "in vivo, southern crabgrass (Digitaria ciliaris)", "settings": "320 g/ha; for herbicidal effect on F: southern crabgrass (evaluation grade 0-5): foliage application after 14-day growth, evaluated three weeks after application", "method_in_brief": "(§2)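 Sow seeds spot-wise in sterilized diluvial soil; cover with ~1.5 cm soil. Grow 14 days in greenhouse, 25° C. to 30° C. Spray foliage with emulsion diluted to predetermined amount. Rate effect after 3 weeks.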"}, "green foxtail": {"system": "green foxtail", "test": "Test Example 5: herbicidal effect by foliage application, plastic box (Table 20, symbol G)", "assay_type": "in vivo, green foxtail (Setaria viridis)", "settings": "320 g/ha; for herbicidal effect on G: green foxtail (evaluation grade 0-5): foliage application after 14-day growth, evaluated three weeks after application", "method_in_brief": "as §2"}, "barnyard grass [2]": {"system": "barnyard grass", "test": "Test Example 5: herbicidal effect by foliage application, plastic box (Table 20, symbol H)", "assay_type": "in vivo, barnyard grass (Echinochloa crus-galli)", "settings": "320 g/ha; for herbicidal effect on H: barnyard grass (evaluation grade 0-5): foliage application after 14-day growth, evaluated three weeks after application", "method_in_brief": "as §2"}, "wild oat": {"system": "wild oat", "test": "Test Example 5: herbicidal effect by foliage application, plastic box (Table 20, symbol I)", "assay_type": "in vivo, wild oat (Avena fatua)", "settings": "320 g/ha; for herbicidal effect on I: wild oat (evaluation grade 0-5): foliage application after 14-day growth, evaluated three weeks after application", "method_in_brief": "as §2"}, "blackgrass": {"system": "blackgrass", "test": "Test Example 5: herbicidal effect by foliage application, plastic box (Table 20, symbol J)", "assay_type": "in vivo, blackgrass (Alopecurus myosuroides)", "settings": "320 g/ha; for herbicidal effect on J: blackgrass (evaluation grade 0-5): foliage application after 14-day growth, evaluated three weeks after application", "method_in_brief": "as §2"}, "Italian ryegrass": {"system": "Italian ryegrass", "test": "Test Example 5: herbicidal effect by foliage application, plastic box (Table 20, symbol K)", "assay_type": "in vivo, Italian ryegrass (Lolium multiflorum)", "settings": "320 g/ha; for herbicidal effect on K: Italian ryegrass (evaluation grade 0-5): foliage application after 14-day growth, evaluated three weeks after application", "method_in_brief": "as §2"}, "windgrass": {"system": "windgrass", "test": "Test Example 5: herbicidal effect by foliage application, plastic box (Table 20, symbol L)", "assay_type": "in vivo, windgrass (Apera spica-venti)", "settings": "320 g/ha; for herbicidal effect on L: windgrass (evaluation grade 0-5): foliage application after 14-day growth, evaluated three weeks after application", "method_in_brief": "as §2"}, "velvetleaf": {"system": "velvetleaf", "test": "Test Example 5: herbicidal effect by foliage application, plastic box (Table 20, symbol M)", "assay_type": "in vivo, velvetleaf (Abutilon theophrasti)", "settings": "320 g/ha; for herbicidal effect on M: velvetleaf (evaluation grade 0-5): foliage application after 14-day growth, evaluated three weeks after application", "method_in_brief": "as §2"}, "redroot pigweed": {"system": "redroot pigweed", "test": "Test Example 5: herbicidal effect by foliage application, plastic box (Table 20, symbol N)", "assay_type": "in vivo, redroot pigweed (Amaranthus retroflexus)", "settings": "320 g/ha; for herbicidal effect on N: redroot pigweed (evaluation grade 0-5): foliage application after 14-day growth, evaluated three weeks after application", "method_in_brief": "as §2"}, "lambsquarters": {"system": "lambsquarters", "test": "Test Example 5: herbicidal effect by foliage application, plastic box (Table 20, symbol O)", "assay_type": "in vivo, lambsquarters (Chenopodium album)", "settings": "320 g/ha; for herbicidal effect on O: lambsquarters (evaluation grade 0-5): foliage application after 14-day growth, evaluated three weeks after application", "method_in_brief": "as §2"}, "chickweed": {"system": "chickweed", "test": "Test Example 5: herbicidal effect by foliage application, plastic box (Table 20, symbol P)", "assay_type": "in vivo, common chickweed (Stellaria media)", "settings": "320 g/ha; for herbicidal effect on P: chickweed (evaluation grade 0-5): foliage application after 14-day growth, evaluated three weeks after application", "method_in_brief": "as §2"}, "persian speedwell": {"system": "persian speedwell", "test": "Test Example 5: herbicidal effect by foliage application, plastic box (Table 20, symbol R)", "assay_type": "in vivo, Persian speedwell (Veronica persica)", "settings": "320 g/ha; for herbicidal effect on R: persian speedwell (evaluation grade 0-5): foliage application after 14-day growth, evaluated three weeks after application", "method_in_brief": "as §2"}, "[3]": {"settings": "amount of applied herbicide 320 g/ha"}, "[4]": {"settings": "foliage application, three weeks after application"}}, "data": [{"compound": "Cc1nn(C)c(=O)c(-c2c(-c3ccc(Cl)cc3)sc3cc(F)ccc23)c1O", "note": "[3-015]", "values": [{"measurement": "herbicidal effect on H: barnyard grass", "setting": "barnyard grass [1]; [3]", "value": "3 (Herbicidal rate of 40% or more and less than 70%)"}, {"measurement": "herbicidal effect on D: Chinese sprangletop", "setting": "Chinese sprangletop; [3]", "value": "3 (Herbicidal rate of 40% or more and less than 70%)"}, {"measurement": "herbicidal effect on E: rice flat sedge", "setting": "rice flat sedge; [3]", "value": "3 (Herbicidal rate of 40% or more and less than 70%)"}, {"measurement": "F: southern crabgrass, herbicidal effect grade", "setting": "southern crabgrass; [4]", "value": "0 (Herbicidal rate of 5% or less (almost no effect))"}, {"measurement": "G: green foxtail, herbicidal effect grade", "setting": "green foxtail; [4]", "value": "0 (Herbicidal rate of 5% or less (almost no effect))"}, {"measurement": "H: barnyard grass, herbicidal effect grade", "setting": "barnyard grass [2]; [4]", "value": "0 (Herbicidal rate of 5% or less (almost no effect))"}, {"measurement": "I: wild oat, herbicidal effect grade", "setting": "wild oat; [4]", "value": "0 (Herbicidal rate of 5% or less (almost no effect))"}, {"measurement": "J: blackgrass, herbicidal effect grade", "setting": "blackgrass; [4]", "value": "1 (Herbicidal rate of 5% or more and less than 20%)"}, {"measurement": "K: Italian ryegrass, herbicidal effect grade", "setting": "Italian ryegrass; [4]", "value": "0 (Herbicidal rate of 5% or less (almost no effect))"}, {"measurement": "L: windgrass, herbicidal effect grade", "setting": "windgrass; [4]", "value": "5 (Herbicidal rate of 90% or more (almost completely withered))"}, {"measurement": "M: velvetleaf, herbicidal effect grade", "setting": "velvetleaf; [4]", "value": "0 (Herbicidal rate of 5% or less (almost no effect))"}, {"measurement": "N: redroot pigweed, herbicidal effect grade", "setting": "redroot pigweed; [4]", "value": "2 (Herbicidal rate of 20% or more and less than 40%)"}, {"measurement": "O: lambsquarters, herbicidal effect grade", "setting": "lambsquarters; [4]", "value": "0 (Herbicidal rate of 5% or less (almost no effect))"}, {"measurement": "P: chickweed, herbicidal effect grade", "setting": "chickweed; [4]", "value": "4 (Herbicidal rate of 70% or more and less than 90%)"}, {"measurement": "R: persian speedwell, herbicidal effect grade", "setting": "persian speedwell; [4]", "value": "2 (Herbicidal rate of 20% or more and less than 40%)"}]}, {"compound": "Cc1nn(C)c(=O)c(-c2c(-c3ccc(OC(F)F)cc3)sc3cc(Cl)ccc23)c1O", "note": "[3-147]", "values": [{"measurement": "herbicidal effect on barnyard grass (H)", "setting": "barnyard grass [1]", "value": "4 (Herbicidal rate of 70% or more and less than 90%)"}, {"measurement": "herbicidal effect on Chinese sprangletop (D)", "setting": "Chinese sprangletop", "value": "2 (Herbicidal rate of 20% or more and less than 40%)"}, {"measurement": "herbicidal effect on rice flat sedge (E)", "setting": "rice flat sedge", "value": "3 (Herbicidal rate of 40% or more and less than 70%)"}, {"measurement": "herbicidal effect on F: southern crabgrass (evaluation grade 0-5)", "setting": "southern crabgrass", "value": "3 (Herbicidal rate of 40% or more and less than 70%)"}, {"measurement": "herbicidal effect on G: green foxtail (evaluation grade 0-5)", "setting": "green foxtail", "value": "5 (Herbicidal rate of 90% or more (almost completely withered))"}, {"measurement": "herbicidal effect on H: barnyard grass (evaluation grade 0-5)", "setting": "barnyard grass [2]", "value": "3 (Herbicidal rate of 40% or more and less than 70%)"}, {"measurement": "herbicidal effect on I: wild oat (evaluation grade 0-5)", "setting": "wild oat", "value": "3 (Herbicidal rate of 40% or more and less than 70%)"}, {"measurement": "herbicidal effect on J: blackgrass (evaluation grade 0-5)", "setting": "blackgrass", "value": "5 (Herbicidal rate of 90% or more (almost completely withered))"}, {"measurement": "herbicidal effect on K: Italian ryegrass (evaluation grade 0-5)", "setting": "Italian ryegrass", "value": "3 (Herbicidal rate of 40% or more and less than 70%)"}, {"measurement": "herbicidal effect on L: windgrass (evaluation grade 0-5)", "setting": "windgrass", "value": "5 (Herbicidal rate of 90% or more (almost completely withered))"}, {"measurement": "herbicidal effect on M: velvetleaf (evaluation grade 0-5)", "setting": "velvetleaf", "value": "4 (Herbicidal rate of 70% or more and less than 90%)"}, {"measurement": "herbicidal effect on N: redroot pigweed (evaluation grade 0-5)", "setting": "redroot pigweed", "value": "4 (Herbicidal rate of 70% or more and less than 90%)"}, {"measurement": "herbicidal effect on O: lambsquarters (evaluation grade 0-5)", "setting": "lambsquarters", "value": "5 (Herbicidal rate of 90% or more (almost completely withered))"}, {"measurement": "herbicidal effect on P: chickweed (evaluation grade 0-5)", "setting": "chickweed", "value": "5 (Herbicidal rate of 90% or more (almost completely withered))"}, {"measurement": "herbicidal effect on R: persian speedwell (evaluation grade 0-5)", "setting": "persian speedwell", "value": "5 (Herbicidal rate of 90% or more (almost completely withered))"}]}, {"compound": "Cc1nn(C)c(=O)c(-c2c(-c3ccc(C(F)(F)F)cc3F)sc3c(Cl)cccc23)c1O", "note": "[4-037]", "values": [{"measurement": "herbicidal effect on barnyard grass (H)", "setting": "barnyard grass [1]", "value": "3 (Herbicidal rate of 40% or more and less than 70%)"}, {"measurement": "herbicidal effect on Chinese sprangletop (D)", "setting": "Chinese sprangletop", "value": "1 (Herbicidal rate of 5% or more and less than 20%)"}, {"measurement": "herbicidal effect on rice flat sedge (E)", "setting": "rice flat sedge", "value": "0 (Herbicidal rate of 5% or less (almost no effect))"}, {"measurement": "herbicidal effect on F: southern crabgrass (evaluation grade 0-5)", "setting": "southern crabgrass", "value": "0 (Herbicidal rate of 5% or less (almost no effect))"}, {"measurement": "herbicidal effect on G: green foxtail (evaluation grade 0-5)", "setting": "green foxtail", "value": "2 (Herbicidal rate of 20% or more and less than 40%)"}, {"measurement": "herbicidal effect on H: barnyard grass (evaluation grade 0-5)", "setting": "barnyard grass [2]", "value": "0 (Herbicidal rate of 5% or less (almost no effect))"}, {"measurement": "herbicidal effect on I: wild oat (evaluation grade 0-5)", "setting": "wild oat", "value": "0 (Herbicidal rate of 5% or less (almost no effect))"}, {"measurement": "herbicidal effect on J: blackgrass (evaluation grade 0-5)", "setting": "blackgrass", "value": "0 (Herbicidal rate of 5% or less (almost no effect))"}, {"measurement": "herbicidal effect on K: Italian ryegrass (evaluation grade 0-5)", "setting": "Italian ryegrass", "value": "0 (Herbicidal rate of 5% or less (almost no effect))"}, {"measurement": "herbicidal effect on L: windgrass (evaluation grade 0-5)", "setting": "windgrass", "value": "5 (Herbicidal rate of 90% or more (almost completely withered))"}, {"measurement": "herbicidal effect on M: velvetleaf (evaluation grade 0-5)", "setting": "velvetleaf", "value": "5 (Herbicidal rate of 90% or more (almost completely withered))"}, {"measurement": "herbicidal effect on N: redroot pigweed (evaluation grade 0-5)", "setting": "redroot pigweed", "value": "5 (Herbicidal rate of 90% or more (almost completely withered))"}, {"measurement": "herbicidal effect on O: lambsquarters (evaluation grade 0-5)", "setting": "lambsquarters", "value": "5 (Herbicidal rate of 90% or more (almost completely withered))"}, {"measurement": "herbicidal effect on P: chickweed (evaluation grade 0-5)", "setting": "chickweed", "value": "4 (Herbicidal rate of 70% or more and less than 90%)"}, {"measurement": "herbicidal effect on R: persian speedwell (evaluation grade 0-5)", "setting": "persian speedwell", "value": "0 (Herbicidal rate of 5% or less (almost no effect))"}]}]}
